# How the values were obtained:
# [1] = system: Aedes aegypti (Yellow fever mosquito); experiment: whole plant or invertebrate; settings: Aedes aegypti
# Method: […] Once the deposits were dry, five non-blood fed adult female Aedes aegypti (between two to five days old) were added to each well, and sustained with a 10% sucrose solution in a cotton wool plug. Assessment of the knockdown after 1 hour, and mortality after 48 hours was carried out.
# (§1) In case of multiple tests, the mean value is reported.
# [2] = system: An. Gambiae Tiassalé; experiment: Example B5: bottle based cross resistance study (CDC bottle assay); assay type: in vivo; settings: for Knockdown (%) at 15 mins / Knockdown (%) at 60 mins: 20 ppm, bottle, Tiassalé; for mortality at 20 ppm: Anopheles gambiae
# Method: (§2) Based on the “CDC bottle assay” (described at http://www.cdc.gov/malaria/resources/pdf/fsp/ir_manual/ir_cdc_bioassay_en.pdf) 1 ml of ethanol containing a test compound at a defined concentration was added to a 250 ml glass bottle and the bottles were placed on a rolling table to coat the inner surfaces as the solvent evaporated. Once dry, twenty five non-blood fed adult female mosquitoes of the appropriate species and strains (each three day old) were aspirated from the stock culture and gently blown into the exposure bottles. The lid of the bottle was replaced and the bottle placed upright out of direct sun light under standard culture conditions, nominally 28C and 60-80% relative humidity.
# (§3) A stopwatch was started, and the assessment of the knock-down were made after 15 minutes and 60 minutes. A mosquito was said to be knocked down if it was unable to stand, following the CDC definition. The bottles were replaced in an upright position when not being assessed.
# (§4) After one hour the mosquitoes were carefully removed from the bottle with an aspirator and placed in a recovery cup. The mosquitoes were supplied with a 10% sucrose solution on a cotton wool bung, and stored under culture conditions. Assessments of the mortality were made after 24 hours.
# (§5) Each treatment was replicated a minimum of four times, with the mean knockdown or mortality recorded. In each study, a set of bottles was infested with a known insecticide susceptible strain of mosquitoes from the same genera as the resistant strains.
# [3] = system: An. Gambiae Kisumu sus; experiment: as above; assay type: in vivo; settings: for mortality at 20 ppm / mortality at 25 ppm: Anopheles gambiae; for mortality at 25 ppm: 24 h
# Method: as §2, §3, §4, §5
# [4] = system: An. stephensi; experiment: as above; assay type: in vivo; settings: for Knockdown (%) at 15 mins / Knockdown (%) at 60 mins: 20 ppm, bottle, An. stephensi; for mortality at 20 ppm: Anopheles stephensi
# Method: as §2, §3, §4, §5
# [5] = system: Anopheles stephensi (Indian malaria mosquito); experiment: whole plant or invertebrate; settings: Anopheles stephensi
# Method: […] Once the deposits were dry, five non-blood fed adult female Anopheles stephensi (between two to five days old) were added to each well, and sustained with a 10% sucrose solution in a cotton wool plug. Assessment of the knockdown after 1 hour, and mortality after 48 hours was carried out.
# as §1
# [6] = system: Anopheles stephensi; experiment: whole plant or invertebrate; settings: Anopheles stephensi, 48 h
# In short: (§6)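 Non-blood-fed adult females (2–5 days old), ten per well, were placed on dried ethanol deposits of the test compound at a defined concentration and fed 10% sucrose. Mortality was scored at 48 hours as the mean of two replicates.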
# [7] = system: Aedes aegypti; experiment: whole plant or invertebrate; settings: Aedes aegypti, 48 h
# In short: as §6
# [8] = system: Anopheles stephensi; experiment: Example B7: evaluation of insecticide impregnated polymer surfaces; assay type: in vivo; settings: AI content 2 wt %; for knock-down: after one hour; for mortality: 24 hours after exposure
# Excerpt: (§7) Preparation of polymeric sheets: Certain methoxyacrylate were Impregnated into three polymers: LDPE (low density polyethylene), HDPE (high density polyethylene) and PP (polypropylene) in different concentrations by mixing the respective polymer with a compound at high temperatures and the resultant polymeric material were then mould into thin discs or plaques.
# (§8) Twenty four hours prior to the relevant assessment intervals, three to five day old non-blood fed adult mosquitoes were taken from the culture and lightly anaesthetised with carbon dioxide. Ten females were selected and placed in a 250 ml plastic cup, retained with a net lid, provided with a 10% sucrose solution soaked in a cotton wool bung and held under culturing environmental conditions.
# (§9) After twenty four hours, impregnated polymer sheets (measuring about 150 mm in diameter and about 0.1 mm in thickness) were removed from storage and wrapped around the glazed side of an 11 cm ceramic tile and held in place with an elastic band. A cup of the pre-selected mosquitoes were again lightly anaesthetised with carbon dioxide and transferred from the holding cup to the base of a 9 cm plastic Petri dish. The relevant impregnated polymer sheet was placed over the Petri dish and held in place with an elastic band. Once the mosquitoes had recovered from the anaesthetic, ca. 1 minute, the impregnated polymer sheet was placed on a holding rack, such that treated side was at an angle of […] to the horizontal.
# (§10) After one hour an assessment of mosquito knockdown was made. A mosquito was said to be knocked down if it was unable to right itself once it had fallen over. The mosquitoes were lightly anaesthetised again, and removed from the Petri dish exposure chamber and returned to the holding cups. The mosquitoes were supplied with a 10% sucrose solution soaked in a cotton wool bung and held under culturing environmental conditions. An assessment of mortality was made 24 hours after exposure. A mosquito was said to be dead if it is unable to right itself once it had fallen over.
# [9] = system: Aedes aegypti; experiment: as above; assay type: in vivo; settings: AI content 2 wt %, polymer 4 to 6 weeks old; for knock-down: after one hour; for mortality: 24 hours after exposure
# Excerpt: as §7, §8, §9, §10
# [10] = system: An. Gambiae Kisumu rdl; experiment: Example B4: cross resistance study, 6-well plate; assay type: in vivo; settings: for Knockdown: after 60 minutes, Kisumu rdl
# Method: (§11) In each study, a set of plates were infested with a known insecticide susceptible strain of mosquitoes from the same genera as the resistant strains.
# (§12) Assessment of the knockdown after 60 minutes and mortality after 24 hours was carried out. Each treatment was replicated a minimum of four times, with the mean knockdown or mortality recorded.
# (§13) A comparison of the knockdown and mortality of the resistant strain of mosquitoes was made to that of the susceptible to identify evidence of cross resistance.
# [11] = system: Ae. aegypti Caymon; experiment: Example B4: cross resistance study, 6-well plate; assay type: in vivo; settings: for Knockdown: after 60 minutes, Caymon
# Method: as §11, §12, §13
# [12] = system: An. Arabiensis Moz sus; experiment: Example B4: cross resistance study, 6-well plate; assay type: in vivo; settings: for Knockdown: after 60 minutes, Moz sus
# Method: as §11, §12, §13
# [13] = system: An. Gambiae Tiassalé; experiment: Example B4: cross resistance study, 6-well plate; assay type: in vivo; settings: for Knockdown: after 60 minutes, Tiassalé
# Method: as §11, §12, §13
# [14] = system: Ae. Aegypti New Orleans; experiment: Example B4: cross resistance study, 6-well plate; assay type: in vivo; settings: for Knockdown: after 60 minutes, New Orleans
# Method: as §11, §12, §13
# [15] = system: An. Gambiae Kisumu sus; experiment: Example B4: cross resistance study, 6-well plate; assay type: in vivo; settings: for Knockdown: after 60 minutes, Kisumu sus
# Method: as §11, §12, §13
# [16] = system: An. stephensi; experiment: Example B4: cross resistance study, 6-well plate; assay type: in vivo; settings: for Knockdown: after 60 minutes, An. stephensi
# Method: as §11, §12, §13
# [17] = system: An. Arabiensis Ndjamina; experiment: Example B4: cross resistance study, 6-well plate; assay type: in vivo
# Method: as §11, §12, §13
# [18] = system: VK7; experiment: Example B5: bottle based cross resistance study (CDC bottle assay); assay type: in vivo; settings: Anopheles coluzzii, 24 h, after 24 hours
# Method: as §2, §3, §4, §5
# [19] = system: FUMOZ; experiment: as above; assay type: in vivo; settings: Anopheles funestus, 24 h, 25 ppm, after 24 hours, FUMOZ
# Method: as §2, §3, §4, §5
smiles,measurement,setting,value
"CCC(=N\OC)/C(C)=N/OCc1ccccc1/C(=C\OC)C(=O)OC [Compound 4, Methyl(E)-3-methoxy-2-[2-[[(E)-[(2E)-2-methoxyimino-1-methyl-butylidene]amino]-oxymethyl]phenyl]prop-2-enoate]",pest or weed control at 20 ppm,"[1]; 1 h, read-out: Knockdown",100%
same,mortality at 20 ppm,[1]; 48 h,100%
same,Knockdown (%) at 15 mins,[2],17%
same,Knockdown (%) at 60 mins,[2],96%
same,mortality at 20 ppm,[2],77%
same,Knockdown (%) at 15 mins,"[3]; 20 ppm, bottle, Kisumu sus",48%
same,Knockdown (%) at 60 mins,"[3]; 20 ppm, bottle, Kisumu sus",100%
same,mortality at 20 ppm,[3],100%
same,Knockdown (%) at 15 mins,[4],10%
same,Knockdown (%) at 60 mins,[4],100%
same,mortality at 20 ppm,[4],80%
same,pest or weed control at 20 ppm,"[5]; 1 h, read-out: Knockdown",80%
same,mortality at 20 ppm,[5]; 48 h,100%
same,mortality at 5 ppm,[6],98%
same,mortality at 5 ppm,[7],78%
same,knock-down,"[8]; HDPE, polymer 4 to 6 weeks old",93%
same,knock-down,"[8]; HDPE, polymer 6 to 8 weeks old",77%
same,knock-down,"[8]; LDPE, polymer 4 to 6 weeks old",87%
same,knock-down,"[8]; LDPE, polymer 6 to 8 weeks old",70%
same,knock-down,"[8]; PP, polymer 4 to 6 weeks old",100%
same,knock-down,"[8]; PP, polymer 6 to 8 weeks old",90%
same,knock-down,[9]; HDPE,53%
same,knock-down,[9]; LDPE,63%
same,knock-down,[9]; PP,63%
same,Knockdown,[10]; 2.00 ppm,30%
same,mortality at 2 ppm,"[10]; Anopheles gambiae, 24 h",100%
same,Knockdown,[11]; 2.00 ppm,45%
same,mortality at 2 ppm,"[11]; Aedes aegypti, 24 h",90%
same,Knockdown,[12]; 2.00 ppm,0%
same,mortality at 2 ppm,"[12]; Anopheles arabiensis, 24 h",95%
same,Knockdown,[13]; 2.00 ppm,70%
same,mortality at 2 ppm,"[13]; Anopheles gambiae, 24 h",100%
same,Knockdown,[14]; 2.00 ppm,75%
same,mortality at 2 ppm,"[14]; Aedes aegypti, 24 h",100%
same,Knockdown,[15]; 2.00 ppm,67%
same,mortality at 2 ppm,"[15]; Anopheles gambiae, 24 h",95%
same,Knockdown,[16]; 2.00 ppm,95%
same,mortality at 2 ppm,"[16]; Anopheles stephensi, 24 h",100%
same,Knockdown,"[17]; 2.00 ppm, after 60 minutes, Ndjamina",100%
same,mortality at 2 ppm,"[17]; Anopheles arabiensis, 24 h",100%
"CC1(C)C(C=C(Cl)Cl)C1C(=O)OCc1cccc(Oc2ccccc2)c1 (stereo not drawn) [Permethrin, reference compound]",mortality at 25 ppm,[18]; Table B5b,3%
same,mortality at 25 ppm,[18]; Table B5c,4%
same,mortality at 25 ppm,[19]; Table B5b,24%
same,mortality at 25 ppm,[19]; Table B5c,46%
same,Knockdown (%) at 15 mins,[2],50%
same,Knockdown (%) at 60 mins,[2],99%
same,mortality at 20 ppm,[2],85%
same,Knockdown (%) at 15 mins,"[3]; 20 ppm, bottle, Kisumu sus",100%
same,Knockdown (%) at 60 mins,"[3]; 20 ppm, bottle, Kisumu sus",100%
same,mortality at 20 ppm,"[3]; 20 ppm, bottle, one hour exposure, after 24 hours, Kisumu sus",100%
same,mortality at 25 ppm,"[3]; Table B5b, after 24 hours, Kisumu sus",99%
same,mortality at 25 ppm,"[3]; Table B5c, after 24 hours, Kisumu sus",100%
same,Knockdown (%) at 15 mins,[4],97%
same,Knockdown (%) at 60 mins,[4],100%
same,mortality at 20 ppm,[4],100%
same,mortality,"[8]; HDPE, polymer 4 to 6 weeks old",70%
same,knock-down,"[8]; HDPE, polymer 4 to 6 weeks old",100%
same,mortality,"[8]; HDPE, polymer 6 to 8 weeks old",97%
same,knock-down,"[8]; HDPE, polymer 6 to 8 weeks old",100%
same,mortality,"[8]; LDPE, polymer 4 to 6 weeks old",100%
same,knock-down,"[8]; LDPE, polymer 4 to 6 weeks old",100%
same,mortality,"[8]; LDPE, polymer 6 to 8 weeks old",100%
same,knock-down,"[8]; LDPE, polymer 6 to 8 weeks old",100%
same,mortality,"[8]; PP, polymer 4 to 6 weeks old",23%
same,knock-down,"[8]; PP, polymer 4 to 6 weeks old",100%
same,mortality,"[8]; PP, polymer 6 to 8 weeks old",67%
same,knock-down,"[8]; PP, polymer 6 to 8 weeks old",100%
same,mortality,[9]; HDPE,97%
same,knock-down,[9]; HDPE,100%
same,mortality,[9]; LDPE,100%
same,knock-down,[9]; LDPE,100%
same,mortality,[9]; PP,80%
same,knock-down,[9]; PP,87%
same,Knockdown,[10]; 2.50 ppm,100%
same,mortality at 2.5 ppm,"[10]; Anopheles gambiae, 24 h",100%
same,Knockdown,[11]; 2.50 ppm,0%
same,mortality at 2.5 ppm,"[11]; Aedes aegypti, 24 h",45%
same,Knockdown,[12]; 2.50 ppm,75%
same,mortality at 2.5 ppm,"[12]; Anopheles arabiensis, 24 h",100%
same,Knockdown,[13]; 2.50 ppm,5%
same,mortality at 2.5 ppm,"[13]; Anopheles gambiae, 24 h",14%
same,Knockdown,[14]; 2.50 ppm,91%
same,mortality at 2.5 ppm,"[14]; Aedes aegypti, 24 h",100%
same,Knockdown,[15]; 2.50 ppm,100%
same,mortality at 2.5 ppm,"[15]; Anopheles gambiae, 24 h",100%
same,Knockdown,[16]; 2.50 ppm,85%
same,mortality at 2.5 ppm,"[16]; Anopheles stephensi, 24 h",100%
